Usually AC50 stands for the concentration at which the activity in the assay is half-maximal. A high value points to weaker potency.

Molecules are shown by their SMILES.

In ChEMBL document CHEMBL5291721, “A preclinical secondary pharmacology resource illuminates target-adverse drug reaction associations of marketed drugs” (Nat Commun, 2023) one finds AC50 data, which are given here for five molecules.

Targets include D(1A) dopamine receptor (Homo sapiens, UniProt P21728); D(3) dopamine receptor (Homo sapiens, UniProt P35462); Histamine H3 receptor (Homo sapiens, UniProt Q9Y5N1); Mu-type opioid receptor (Homo sapiens, UniProt P35372).
Another test addresses T1, Adenosine receptor A3 (Homo sapiens, UniProt P0DMS8).
T1 sequence (P0DMS8 whole entry): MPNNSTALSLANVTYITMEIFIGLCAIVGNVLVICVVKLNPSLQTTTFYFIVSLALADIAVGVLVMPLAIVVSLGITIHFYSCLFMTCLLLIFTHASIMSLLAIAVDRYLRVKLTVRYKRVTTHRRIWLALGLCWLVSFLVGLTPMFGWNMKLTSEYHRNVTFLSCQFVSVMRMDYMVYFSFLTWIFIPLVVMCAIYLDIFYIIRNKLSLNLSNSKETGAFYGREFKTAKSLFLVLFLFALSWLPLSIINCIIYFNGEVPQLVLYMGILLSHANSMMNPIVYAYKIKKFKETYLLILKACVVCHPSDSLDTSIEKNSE

For the next test, the target named is T2, Estrogen receptor (Homo sapiens, UniProt P03372).
T2 sequence (P03372 whole entry): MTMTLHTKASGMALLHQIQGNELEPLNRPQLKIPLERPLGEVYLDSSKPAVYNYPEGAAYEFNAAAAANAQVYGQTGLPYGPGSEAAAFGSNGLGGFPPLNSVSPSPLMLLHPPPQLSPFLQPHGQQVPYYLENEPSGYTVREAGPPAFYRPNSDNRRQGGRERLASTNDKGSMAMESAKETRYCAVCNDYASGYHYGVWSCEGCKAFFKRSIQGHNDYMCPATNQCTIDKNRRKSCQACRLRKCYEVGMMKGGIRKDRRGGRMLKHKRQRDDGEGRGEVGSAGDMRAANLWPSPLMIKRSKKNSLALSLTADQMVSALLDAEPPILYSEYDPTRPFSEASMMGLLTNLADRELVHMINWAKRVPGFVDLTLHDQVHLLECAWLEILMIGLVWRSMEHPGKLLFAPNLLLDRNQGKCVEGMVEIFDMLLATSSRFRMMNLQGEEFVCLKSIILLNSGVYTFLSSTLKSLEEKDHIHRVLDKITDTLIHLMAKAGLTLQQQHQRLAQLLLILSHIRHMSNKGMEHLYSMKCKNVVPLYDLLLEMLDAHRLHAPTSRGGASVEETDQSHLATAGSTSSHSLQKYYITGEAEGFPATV

A further test concerns the target Prothrombin (Homo sapiens, UniProt P00734). It counts as functional.
Test [1] deals with T3, 5-hydroxytryptamine receptor 1A (Homo sapiens, UniProt P08908).
T3 sequence (P08908 whole entry): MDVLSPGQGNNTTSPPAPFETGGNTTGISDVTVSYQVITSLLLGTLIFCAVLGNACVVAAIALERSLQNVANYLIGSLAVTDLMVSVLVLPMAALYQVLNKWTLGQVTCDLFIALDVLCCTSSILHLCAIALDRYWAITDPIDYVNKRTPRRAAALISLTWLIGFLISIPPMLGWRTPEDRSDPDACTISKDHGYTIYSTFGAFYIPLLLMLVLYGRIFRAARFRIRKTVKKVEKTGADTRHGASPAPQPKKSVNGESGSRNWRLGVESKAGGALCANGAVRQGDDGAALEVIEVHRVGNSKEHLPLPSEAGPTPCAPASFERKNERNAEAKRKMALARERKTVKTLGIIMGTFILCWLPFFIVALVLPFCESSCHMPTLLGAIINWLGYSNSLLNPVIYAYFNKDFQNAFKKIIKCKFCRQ

The target in test [2] is 5-hydroxytryptamine receptor 2B (Homo sapiens, UniProt P41595). It counts as functional, cell-based.
5-hydroxytryptamine receptor 2B, sequence (P41595 whole entry): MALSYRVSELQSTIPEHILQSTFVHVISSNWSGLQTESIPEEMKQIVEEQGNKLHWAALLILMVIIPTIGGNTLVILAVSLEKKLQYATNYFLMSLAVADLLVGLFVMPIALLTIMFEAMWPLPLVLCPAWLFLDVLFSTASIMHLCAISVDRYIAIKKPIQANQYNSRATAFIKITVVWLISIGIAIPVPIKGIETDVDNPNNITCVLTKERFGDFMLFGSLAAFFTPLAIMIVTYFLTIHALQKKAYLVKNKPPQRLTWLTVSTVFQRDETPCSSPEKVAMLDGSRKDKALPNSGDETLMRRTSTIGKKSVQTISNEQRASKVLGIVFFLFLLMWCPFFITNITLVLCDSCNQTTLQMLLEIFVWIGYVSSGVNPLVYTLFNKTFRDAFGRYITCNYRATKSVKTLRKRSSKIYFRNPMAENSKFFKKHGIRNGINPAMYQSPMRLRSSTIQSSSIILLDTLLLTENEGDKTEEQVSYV
Test [3] deals with T4, Amine oxidase [flavin-containing] A (Homo sapiens, UniProt P21397).
T4 sequence (P21397 whole entry): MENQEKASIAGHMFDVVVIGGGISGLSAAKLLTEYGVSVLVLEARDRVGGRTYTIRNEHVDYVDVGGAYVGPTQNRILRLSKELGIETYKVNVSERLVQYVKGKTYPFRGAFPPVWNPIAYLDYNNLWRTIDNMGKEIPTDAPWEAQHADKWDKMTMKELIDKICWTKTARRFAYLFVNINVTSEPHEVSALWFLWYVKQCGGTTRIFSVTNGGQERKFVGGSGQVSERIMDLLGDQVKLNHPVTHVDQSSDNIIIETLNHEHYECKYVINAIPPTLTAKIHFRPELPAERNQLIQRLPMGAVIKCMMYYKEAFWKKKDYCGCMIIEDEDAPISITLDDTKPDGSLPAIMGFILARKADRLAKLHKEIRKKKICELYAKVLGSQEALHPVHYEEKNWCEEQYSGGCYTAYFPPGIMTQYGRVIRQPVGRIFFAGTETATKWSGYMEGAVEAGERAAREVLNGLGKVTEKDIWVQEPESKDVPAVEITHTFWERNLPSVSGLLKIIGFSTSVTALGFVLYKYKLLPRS
It counts as functional.

In test [4] the target is 3',5'-cyclic-AMP phosphodiesterase 4A (Homo sapiens, UniProt P27815). It counts as functional.
3',5'-cyclic-AMP phosphodiesterase 4A, sequence (P27815 whole entry): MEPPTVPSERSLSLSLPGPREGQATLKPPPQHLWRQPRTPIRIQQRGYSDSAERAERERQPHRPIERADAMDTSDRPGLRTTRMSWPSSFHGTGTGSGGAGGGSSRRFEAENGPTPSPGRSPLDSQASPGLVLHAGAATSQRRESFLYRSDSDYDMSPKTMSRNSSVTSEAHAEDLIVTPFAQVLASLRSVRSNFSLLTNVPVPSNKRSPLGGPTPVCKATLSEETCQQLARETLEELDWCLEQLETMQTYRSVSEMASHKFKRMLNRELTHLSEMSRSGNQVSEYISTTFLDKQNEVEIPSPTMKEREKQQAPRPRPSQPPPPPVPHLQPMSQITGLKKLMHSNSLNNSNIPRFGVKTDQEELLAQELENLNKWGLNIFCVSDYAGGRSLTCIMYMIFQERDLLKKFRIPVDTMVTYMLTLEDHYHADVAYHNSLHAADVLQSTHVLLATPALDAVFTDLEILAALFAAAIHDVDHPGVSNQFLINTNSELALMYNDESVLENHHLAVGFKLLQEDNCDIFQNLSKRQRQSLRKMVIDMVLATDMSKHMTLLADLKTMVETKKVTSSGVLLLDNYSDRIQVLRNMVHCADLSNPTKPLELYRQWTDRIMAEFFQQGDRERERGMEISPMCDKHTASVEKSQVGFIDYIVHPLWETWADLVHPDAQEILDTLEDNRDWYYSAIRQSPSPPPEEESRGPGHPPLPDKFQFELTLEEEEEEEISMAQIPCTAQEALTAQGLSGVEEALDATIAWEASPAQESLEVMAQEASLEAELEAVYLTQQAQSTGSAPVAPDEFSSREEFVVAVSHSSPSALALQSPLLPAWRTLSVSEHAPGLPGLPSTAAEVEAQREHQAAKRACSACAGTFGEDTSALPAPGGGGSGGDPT
For test [5], the target named is Prostaglandin G/H synthase 1 (Homo sapiens, UniProt P23219). It counts as functional.
Prostaglandin G/H synthase 1, sequence (P23219 whole entry): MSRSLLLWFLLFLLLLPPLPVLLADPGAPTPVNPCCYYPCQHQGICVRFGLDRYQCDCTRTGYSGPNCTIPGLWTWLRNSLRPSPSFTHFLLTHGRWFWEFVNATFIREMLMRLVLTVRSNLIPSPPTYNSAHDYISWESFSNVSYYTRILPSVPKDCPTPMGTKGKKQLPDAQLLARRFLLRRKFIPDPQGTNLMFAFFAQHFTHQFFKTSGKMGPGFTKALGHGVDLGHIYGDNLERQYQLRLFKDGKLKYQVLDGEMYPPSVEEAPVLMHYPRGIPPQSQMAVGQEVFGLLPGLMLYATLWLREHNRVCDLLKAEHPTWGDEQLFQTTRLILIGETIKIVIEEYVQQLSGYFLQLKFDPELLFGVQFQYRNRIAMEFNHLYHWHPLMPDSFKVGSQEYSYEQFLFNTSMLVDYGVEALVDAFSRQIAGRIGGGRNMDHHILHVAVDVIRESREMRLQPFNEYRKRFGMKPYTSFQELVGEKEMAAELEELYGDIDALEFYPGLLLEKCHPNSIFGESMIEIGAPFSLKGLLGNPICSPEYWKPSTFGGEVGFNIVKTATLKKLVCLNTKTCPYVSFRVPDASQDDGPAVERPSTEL
For another test, the target named is T5, Thromboxane A2 receptor (Homo sapiens, UniProt P21731).
T5 sequence (P21731 whole entry): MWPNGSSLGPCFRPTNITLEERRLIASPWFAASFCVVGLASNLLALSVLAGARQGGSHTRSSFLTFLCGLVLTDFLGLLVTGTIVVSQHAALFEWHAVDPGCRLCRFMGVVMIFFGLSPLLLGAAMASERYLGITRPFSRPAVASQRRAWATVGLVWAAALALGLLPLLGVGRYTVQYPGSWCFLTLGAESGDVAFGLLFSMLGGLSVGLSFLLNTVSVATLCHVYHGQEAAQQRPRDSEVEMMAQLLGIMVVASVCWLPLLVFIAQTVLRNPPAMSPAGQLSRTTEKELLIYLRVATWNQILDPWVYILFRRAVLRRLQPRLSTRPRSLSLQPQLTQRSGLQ
It counts as functional, cell-based.
Further: assay procedure not described here.

Mu-type opioid receptor, sequence (P35372 whole entry): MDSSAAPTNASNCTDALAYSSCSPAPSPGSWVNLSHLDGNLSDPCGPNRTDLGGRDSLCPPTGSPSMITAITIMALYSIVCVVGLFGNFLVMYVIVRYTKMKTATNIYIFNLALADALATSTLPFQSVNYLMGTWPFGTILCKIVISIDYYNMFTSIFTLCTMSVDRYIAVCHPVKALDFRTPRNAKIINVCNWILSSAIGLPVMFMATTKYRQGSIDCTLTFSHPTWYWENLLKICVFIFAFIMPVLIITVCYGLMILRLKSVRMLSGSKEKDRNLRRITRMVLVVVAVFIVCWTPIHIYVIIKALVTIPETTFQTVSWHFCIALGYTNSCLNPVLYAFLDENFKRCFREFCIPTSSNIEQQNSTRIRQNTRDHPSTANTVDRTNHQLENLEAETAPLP
D(1A) dopamine receptor, sequence (P21728 whole entry): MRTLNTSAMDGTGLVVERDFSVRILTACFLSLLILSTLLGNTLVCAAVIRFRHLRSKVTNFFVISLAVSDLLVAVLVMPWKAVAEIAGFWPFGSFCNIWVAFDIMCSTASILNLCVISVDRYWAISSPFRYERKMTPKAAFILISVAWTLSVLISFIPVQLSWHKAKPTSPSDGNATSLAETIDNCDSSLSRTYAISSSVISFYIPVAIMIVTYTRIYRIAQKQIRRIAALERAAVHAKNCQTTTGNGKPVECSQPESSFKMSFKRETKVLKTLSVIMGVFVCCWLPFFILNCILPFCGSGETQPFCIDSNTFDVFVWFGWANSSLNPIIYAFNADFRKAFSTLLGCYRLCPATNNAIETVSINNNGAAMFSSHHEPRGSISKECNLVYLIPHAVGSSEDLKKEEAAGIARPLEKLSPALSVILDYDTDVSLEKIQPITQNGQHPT
Histamine H3 receptor, sequence (Q9Y5N1 whole entry): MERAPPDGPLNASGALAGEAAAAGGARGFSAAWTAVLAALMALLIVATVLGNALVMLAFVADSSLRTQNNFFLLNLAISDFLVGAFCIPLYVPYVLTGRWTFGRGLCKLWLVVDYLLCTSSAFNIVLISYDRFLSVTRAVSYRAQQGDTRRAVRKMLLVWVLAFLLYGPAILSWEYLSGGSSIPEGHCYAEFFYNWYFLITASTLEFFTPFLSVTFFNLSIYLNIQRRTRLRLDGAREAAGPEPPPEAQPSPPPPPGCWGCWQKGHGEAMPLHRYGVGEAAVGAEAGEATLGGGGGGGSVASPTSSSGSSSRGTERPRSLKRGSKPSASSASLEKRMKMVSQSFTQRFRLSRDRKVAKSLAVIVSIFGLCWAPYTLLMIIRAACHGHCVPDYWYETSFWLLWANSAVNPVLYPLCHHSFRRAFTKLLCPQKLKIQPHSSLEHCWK
D(3) dopamine receptor, sequence (P35462 whole entry): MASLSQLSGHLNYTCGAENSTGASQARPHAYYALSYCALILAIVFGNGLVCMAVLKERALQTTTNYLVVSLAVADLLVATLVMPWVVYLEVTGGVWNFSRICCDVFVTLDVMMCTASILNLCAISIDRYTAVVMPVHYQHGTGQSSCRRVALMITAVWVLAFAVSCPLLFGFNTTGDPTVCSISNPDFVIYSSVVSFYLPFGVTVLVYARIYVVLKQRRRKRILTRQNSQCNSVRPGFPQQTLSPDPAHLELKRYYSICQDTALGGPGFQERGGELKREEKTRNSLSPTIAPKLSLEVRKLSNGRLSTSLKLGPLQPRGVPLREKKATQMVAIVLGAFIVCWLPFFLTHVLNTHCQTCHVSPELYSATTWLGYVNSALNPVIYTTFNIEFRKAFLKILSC

On to `CCOC(=O)[C@H](CCc1ccccc1)N[C@H]1CS[C@H](c2cccs2)CN(CC(=O)O)C1=O` [TEMOCAPRIL], for which the concentration at half-maximal activity (AC50) on Adenosine receptor A3, at D(1A) dopamine receptor, on D(3) dopamine receptor, on Estrogen receptor, on Prothrombin and at Histamine H3 receptor was greater than 30 µM throughout. In addition, the AC50 is greater than 30 µM in [1]; greater than 30 µM in test [2]; greater than 30 µM in test [3]; greater than 30 µM on Mu-type opioid receptor; greater than 10 µM in test [4]; greater than 30 µM in test [5]. The same molecule came in with an AC50 on Thromboxane A2 receptor greater than 30 µM.

`COc1cc([C@@H]2c3cc4c(cc3[C@@H](O[C@@H]3O[C@@H]5CO[C@@H](c6cccs6)O[C@H]5[C@H](O)[C@H]3O)[C@H]3COC(=O)[C@H]23)OCO4)cc(OC)c1O` [TENIPOSIDE]: the half-maximal activity concentration (AC50) at Adenosine receptor A3, at D(1A) dopamine receptor, at D(3) dopamine receptor, at Estrogen receptor, on Prothrombin and on Histamine H3 receptor was greater than 30 µM each time. Also, the concentration at half-maximal activity (AC50) (in [1]; in test [2]; in test [3]; at Mu-type opioid receptor; in test [4]; in test [5]) was greater than 30 µM throughout. On Thromboxane A2 receptor, this molecule showed an AC50 greater than 30 µM.

With `c1ccc2[nH]c(-c3cscn3)nc2c1` [THIABENDAZOLE], the AC50 on Adenosine receptor A3 was 3.73 µM; on D(1A) dopamine receptor, greater than 30 µM; at D(3) dopamine receptor, greater than 30 µM; at Estrogen receptor, greater than 30 µM; on Prothrombin, greater than 30 µM; at Histamine H3 receptor, greater than 30 µM. Also, the concentration at half-maximal activity (AC50) (in test [1]; in test [2]; in test [3]; at Mu-type opioid receptor; in [4]; in test [5]) was greater than 30 µM throughout. Further, the AC50 at Thromboxane A2 receptor is greater than 30 µM.

As for `CCSc1ccc2c(c1)N(CCCN1CCN(C)CC1)c1ccccc1S2` [THIETHYLPERAZINE], the half-maximal activity concentration (AC50) at Adenosine receptor A3 was 6.62 µM; on D(1A) dopamine receptor, 0.0079 µM; at D(3) dopamine receptor, 0.0031 µM; on Estrogen receptor, greater than 30 µM; at Prothrombin, greater than 30 µM; at Histamine H3 receptor, 13 µM. In addition, the AC50 in test [1] is 0.449 µM; in test [2], greater than 30 µM; in test [3] it was greater than 30 µM; on Mu-type opioid receptor it was 2.69 µM; in [4], greater than 30 µM; in test [5], greater than 0.3 µM. This molecule also showed a concentration at half-maximal activity (AC50) on Thromboxane A2 receptor greater than 30 µM.

As to `C[C@@H]1C[C@H]2[C@@H]3CCC4=CC(=O)C=C[C@]4(C)C3=CC[C@]2(C)[C@H]1C(=O)CN1CCN(c2cc(N3CCCC3)nc(N3CCCC3)n2)CC1` [TIRILAZAD], the concentration at half-maximal activity (AC50) was 4.07 µM at Adenosine receptor A3; 7.07 µM on D(1A) dopamine receptor; 9.69 µM at D(3) dopamine receptor; greater than 30 µM on Estrogen receptor; greater than 30 µM on Prothrombin; greater than 30 µM on Histamine H3 receptor. Besides, the concentration at half-maximal activity (AC50) was greater than 30 µM in [1]; greater than 30 µM in [2]; greater than 30 µM in [3]; greater than 30 µM on Mu-type opioid receptor; 19.4 µM in test [4]; 3.8 µM in test [5]. Further, the AC50 on Thromboxane A2 receptor is greater than 30 µM.
